# Data taken from patent US20060134725A1, “Method for the determination of the presence of an antibiotic in a fluid” (priority 2003, published 2006).
# Tests used:
# Assay type in all cases: cell-based
# [1] = tested on: Bacillus stearothermophilus var. calidolactis; assay: Delvotest microbiological test, 0.27 ml test medium, nutrients as tablet, different milk volumes at different incubation times; conditions: 4 ppb penicillin G
# Source text: (§1) The arrangement can be used for detecting residues of antibiotics in milk. The commercially available Delvotest® and BR®-test are commonly used. Delvotest® comprises an agar matrix, CFU's of an acid forming microorganism, as well as a color indicator. With the arrangement mentioned above it is possible to automatically scan the bottom side of each of the samples in a test plate. The color and the brightness of the reflected light are registered in three variables, each describing one color component, for instance the so-called L*a*b* model. In the L*a*b* model, the color spectrum is divided in a two-dimensional matrix. The position of a color in this matrix is registered by means of the two variables “a” and “b”. The variable L indicates the intensity (for instance, from light blue to dark-blue). It is possible to make a criterion comprising the a-value, b-value and L-value to make a composite function as follows: Z=wL.L+wa.a+wb.b
# (§2) where wL, wa and wb are weighting factors for the L-value, a-value and b-value, respectively. […] By combining two or more of the color components in the L*a*b* model in a predetermined manner that depends on the type of residue and the sample, an accurate detection is possible. In practice, a certain value of Z at which a test should switch between positive and negative result (the threshold value) can be experimentally predetermined.
# (§3) As outlined in the detailed description, the following equation was used: Z=0.35.a+0.65.b. The explanation of the symbols used in the Figure is as follows.
# (§4) A commercially available microbiological test system (Delvotest®) having 0.27 ml of test medium containing agar, CFU's of Bacillus stearothermophilus var. calidolactis, an antifolate, and the indicator Bromocresol Purple was investigated using milk with added penicillin G in concentrations of 0, 2, 3, 4 and 6 ppb. These five milk samples were applied to the test systems in a series of four different volumes, ie. 0.05 ml, 0.10 ml (the Delvotest® recommended volume), 0.20 ml and 0.30 ml. Before addition of the milk, a tablet with nutrients was applied on the test medium. After the milk was added, the tests were incubated for 2.6 hours at 64° C. If there are no or little antibiotics that inhibit the growth of the test organism, after some time, an acid environment is formed by the growing microorganisms and the indicator changes color from blue/purple to yellow. However, if there are sufficient antibiotics to inhibit growth, the color of the indicator remains purple.
# A similar experimental setup as in Example 1 was used. […] (for 2.4 h, normally referred to as the point of indicator change, and 3.0 h, normally referred to as the point of reading). […]
# [2] = tested on: Bacillus stearothermophilus var. calidolactis; assay: Delvotest microbiological test, 0.15 ml test medium with nutrients present in the test medium, different volumes of milk, visual colour score; conditions: 3 hours at 64° C., FIG. 3
# Method: In this test, the nutrients were present in the test medium. The explanation of the symbols used in the Figure is as follows.
# A commercially available microbiolgical test system (Delvotest®) having 0.15 ml of test medium containing agar, CFU's of Bacillus stearothermophilus var. calidolactis, an antifolate, nutrients, and the indicator Bromocresol Purple was investigated using milk with added penicillin G in concentrations of 0, 0.5, 1, 2, 3 and 4 ppb. These six different milk samples were applied to the test systems in a series of five different volumes, i.e. 0.05 ml, 0.10 ml (the Delvotest® recommended volume), 0.15 ml, 0.20 ml and 0.30 ml. After the milk was added, the tests were incubated for 3 hours at a temperature of 64° C. If there are no antibiotics (or only little) that inhibit the growth of the test organism, after a certain amount of time, an acid environment is formed by the growing microorganisms. Then, the color of the indicator changes from blue/purple to yellow.
# Intermediate color changes were assigned values of −2, −1, 0, +1 or +2, depending on the degree of coloration. […] If, for example, a visual color of 2 is chosen as the required threshold value, it can be seen from FIG. 3 that, whereas the standard recommended amount of 0.10 ml milk gives a color of 2 at a concentration of 2 ppb penicillin G, whereas for 0.15, 0.20 and 0.30 ml milk this threshold already is reached at 1.7 ppb penicillin G.
# [3] = tested on: Bacillus stearothermophilus var. calidolactis; assay: Delvotest microbiological test, 0.27 ml test medium, nutrients added as tablet, different volumes of milk; conditions: for concentration giving a Z-value of 0 (threshold): 2.6 hours at 64° C., Z=0.35.a+0.65.b, FIG. 1
# Source text: as §1, §2, §3, §4
# Firstly, the colors were measured using the scanning apparatus described in the detailed description using the following formula for the Z-value: Z=0.35.a+0.65.b. […]
smiles,measurement,setting,value
CC1(C)S[C@@H]2[C@H](NC(=O)Cc3ccccc3)C(=O)N2[C@H]1C(=O)O [penicillin G],Z-value,"[1]; 0.10 ml milk, 2.4 h at 64° C., line ◯ of FIG. 2",11
same,Z-value,"[1]; 0.10 ml milk, 3.0 h at 64° C., line ⋄ of FIG. 2",4
same,Z-value,"[1]; 0.30 ml milk, 2.4 h at 64° C., line Δ of FIG. 2",14
same,Z-value,"[1]; 0.30 ml milk, 3.0 h at 64° C., line □ of FIG. 2",13
same,concentration giving a visual color of 2 (threshold),[2]; 0.10 ml milk on 0.15 ml test medium,2 ppb
same,concentration giving a visual color of 2 (threshold),[2]; 0.15 ml milk on 0.15 ml test medium,1.7 ppb
same,concentration giving a visual color of 2 (threshold),[2]; 0.20 ml milk on 0.15 ml test medium,1.7 ppb
same,concentration giving a visual color of 2 (threshold),[2]; 0.30 ml milk on 0.15 ml test medium,1.7 ppb
same,concentration giving a Z-value of 0 (threshold),[3]; 0.10 ml milk on 0.27 ml test medium,3 ppb
same,concentration giving a Z-value of 0 (threshold),[3]; 0.20 ml milk on 0.27 ml test medium,2.3 ppb
same,concentration giving a Z-value of 0 (threshold),[3]; 0.30 ml milk on 0.27 ml test medium,2.0 ppb
same,change of sensitivity of the test towards the antibiotic,"[3]; milk, doubling the amount of fluid sample advocated by the producer of the test",increases by a third
